Read-outs that look alike come from different tables or passages of the source.
Biological target: full-length human PIKFYVE (N-terminal GST-fusion) (Homo sapiens (Human), UniProt Q9Y2I7, L932S/Q1183K/Q995L/S1033A/S696N/T998S)
Experiment: PIKfyve biochemical assay (ADP-Glo Kinase assay, Carna Biosciences)
Source text: (§1) PIKfyve Biochemical Assay. The biochemical PIKfyve inhibition assays were run by Carna Biosciences according to proprietary methodology based on the Promega ADP-Glo™ Kinase assay. A full-length human PIKFYVE [1-2098(end) amino acids and S696N, L932S, Q995L, T998S, S1033A and Q1183K of the protein having the sequence set forth in NCBI Reference Sequence No. NP_055855.2] was expressed as N-terminal GST-fusion protein (265 kDa) using baculovirus expression system. GST-PIKFYVE was purified by using glutathione sepharose chromatography and used in an ADP-Glo™ Kinase assay (Promega). Reactions were set up by adding the test compound solution, substrate solution, ATP solution and kinase solution, each at 4× final concentrations. Reactions were prepared with assay buffer (50 mM MOPS, 1 mM DTT, pH7.2), mixed, and incubated in black 384 well polystyrene plates for 1 hour at room temperature. ADP-Glo™ reagent was then added for 40 minutes, followed by kinase detection reagent for an additional 40 minutes. The kinase activity was evaluated by detecting relative light units on a luminescence plate reader. Samples were run in duplicate from 10 μM to 3 nM. […] IC50 values were calculated from concentration vs % inhibition curves by fitting to a four-parameter logistic curve.
as §1, with “The” for “PIKfyve Biochemical Assay. The”, “accession number” for “the protein having the sequence set forth in NCBI Reference Sequence No.”, “curve. […]” for “curve.”

[1] = ADP-Glo, full-length human GST-PIKFYVE, 10 μM to 3 nM, read-out: hPIKfyve IC50
[2] = values plotted in FIG. 7, read-out: PIKFYVE Biochemistry (IC50)

full-length human PIKFYVE (N-terminal GST-fusion), sequence (Q9Y2I7 whole entry S696N/L932S/Q995L/T998S/S1033A/Q1183K, the tested form may be a part): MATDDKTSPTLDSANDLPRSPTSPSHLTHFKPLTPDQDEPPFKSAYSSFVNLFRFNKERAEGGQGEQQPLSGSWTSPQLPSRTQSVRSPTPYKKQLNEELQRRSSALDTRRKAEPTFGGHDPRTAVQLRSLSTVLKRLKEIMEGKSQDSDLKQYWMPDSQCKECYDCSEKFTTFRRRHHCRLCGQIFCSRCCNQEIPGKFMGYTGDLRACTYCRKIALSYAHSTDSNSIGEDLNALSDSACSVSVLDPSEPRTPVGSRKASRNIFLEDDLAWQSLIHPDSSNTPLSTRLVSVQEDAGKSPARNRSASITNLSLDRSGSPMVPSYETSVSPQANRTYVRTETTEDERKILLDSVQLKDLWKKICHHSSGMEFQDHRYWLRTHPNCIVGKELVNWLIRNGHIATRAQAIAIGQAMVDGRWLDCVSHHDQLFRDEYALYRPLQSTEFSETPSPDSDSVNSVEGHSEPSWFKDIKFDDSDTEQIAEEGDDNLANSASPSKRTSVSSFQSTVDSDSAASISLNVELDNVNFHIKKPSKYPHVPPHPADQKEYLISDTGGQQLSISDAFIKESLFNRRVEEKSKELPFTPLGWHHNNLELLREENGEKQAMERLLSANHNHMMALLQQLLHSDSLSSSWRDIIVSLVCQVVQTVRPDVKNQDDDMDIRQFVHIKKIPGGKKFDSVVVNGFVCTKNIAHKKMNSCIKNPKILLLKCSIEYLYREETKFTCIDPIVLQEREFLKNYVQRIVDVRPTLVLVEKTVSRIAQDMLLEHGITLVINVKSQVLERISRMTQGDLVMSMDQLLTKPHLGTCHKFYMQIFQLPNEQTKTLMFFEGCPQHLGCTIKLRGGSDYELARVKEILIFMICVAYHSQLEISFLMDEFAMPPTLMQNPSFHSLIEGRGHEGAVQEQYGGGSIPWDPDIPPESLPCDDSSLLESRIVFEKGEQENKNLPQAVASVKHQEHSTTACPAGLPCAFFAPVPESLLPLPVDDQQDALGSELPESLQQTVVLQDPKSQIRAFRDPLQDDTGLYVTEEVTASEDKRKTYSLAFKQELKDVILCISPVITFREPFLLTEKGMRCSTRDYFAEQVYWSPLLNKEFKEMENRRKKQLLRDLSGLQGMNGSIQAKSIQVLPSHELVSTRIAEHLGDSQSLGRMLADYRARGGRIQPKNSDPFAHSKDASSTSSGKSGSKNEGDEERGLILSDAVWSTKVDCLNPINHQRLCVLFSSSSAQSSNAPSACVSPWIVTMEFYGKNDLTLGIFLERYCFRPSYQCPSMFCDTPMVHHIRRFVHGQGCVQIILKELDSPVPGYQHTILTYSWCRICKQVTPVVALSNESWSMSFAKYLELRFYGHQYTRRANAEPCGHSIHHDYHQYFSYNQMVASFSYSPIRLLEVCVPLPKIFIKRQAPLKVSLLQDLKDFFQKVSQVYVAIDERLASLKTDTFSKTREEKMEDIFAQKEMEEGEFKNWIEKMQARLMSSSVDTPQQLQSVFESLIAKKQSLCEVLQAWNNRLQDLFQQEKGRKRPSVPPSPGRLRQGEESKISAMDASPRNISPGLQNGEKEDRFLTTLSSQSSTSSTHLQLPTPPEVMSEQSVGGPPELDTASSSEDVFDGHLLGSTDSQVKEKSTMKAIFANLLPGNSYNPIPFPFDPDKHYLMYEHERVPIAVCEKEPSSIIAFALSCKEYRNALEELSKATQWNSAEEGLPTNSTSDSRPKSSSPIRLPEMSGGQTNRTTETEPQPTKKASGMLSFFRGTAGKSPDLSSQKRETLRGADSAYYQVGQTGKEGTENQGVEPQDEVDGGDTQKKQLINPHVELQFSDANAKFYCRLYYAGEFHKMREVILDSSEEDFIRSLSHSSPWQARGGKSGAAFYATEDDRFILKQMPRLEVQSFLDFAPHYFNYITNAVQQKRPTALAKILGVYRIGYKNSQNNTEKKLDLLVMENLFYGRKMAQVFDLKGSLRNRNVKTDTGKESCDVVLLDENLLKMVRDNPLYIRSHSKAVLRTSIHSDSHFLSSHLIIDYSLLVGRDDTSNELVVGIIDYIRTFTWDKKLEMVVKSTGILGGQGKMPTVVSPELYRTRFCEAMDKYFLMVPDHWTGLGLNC

Row | Structure (SMILES) | IC50 [1] | IC50 [2]
1 | c1cncc(N2CCc3c(OCCC4CCCO4)nc(N4CCOCC4)nc32)c1 (stereo not drawn) [Compound 31, 4-(7-(pyridin-3-yl)-4-(2-(tetrahydrofuran-2-yl)ethoxy)-6,7-dihydro-5H-pyrrolo[2,3-d]pyrimidin-2-yl)morpholine] | 10 to 100 nM | –
2 | c1cc(N2CCc3c(-c4ccoc4)nc(N4CCOCC4)nc32)cnn1 [Compound 96, 4-(4-(furan-3-yl)-7-(pyridazin-4-yl)-6,7-dihydro-5H-pyrrolo[2,3-d]pyrimidin-2-yl)morpholine] | 10 to 100 nM | –
3 | Cc1cccc(CN2CCc3c(Cl)nc(N4CCOCC4)nc32)c1 [Compound 41, 4-(4-chloro-7-(3-methylbenzyl)-6,7-dihydro-5H-pyrrolo[2,3-d]pyrimidin-2-yl)morpholine] | > 10000 nM | –
4 | c1ccc(N2CCc3c(Oc4ccncc4)nc(N4CCOCC4)nc32)cc1 [Compound 54, 4-(7-phenyl-4-(pyridin-4-yloxy)-6,7-dihydro-5H-pyrrolo[2,3-d]pyrimidin-2-yl)morpholine] | 10 to 100 nM | –
5 | c1ccc(N2CCc3c(OCc4cncnc4)nc(N4CCOCC4)nc32)cc1 [Compound 14, 4-(7-phenyl-4-(pyrimidin-5-ylmethoxy)-6,7-dihydro-5H-pyrrolo[2,3-d]pyrimidin-2-yl)morpholine] | 10 to 100 nM | –
6 | c1ccc(N2CCc3c(COc4cccnc4)nc(N4CCOCC4)nc32)cc1 [Compound 59, 4-(7-phenyl-4-((pyridin-3-yloxy)methyl)-6,7-dihydro-6H-pyrrolo[2,3-d]pyrimidin-2-yl)morpholine] | 100 to 1000 nM | –
7 | c1cncc(N2CCc3c(OCC4CCOCC4)nc(N4CCOCC4)nc32)c1 [Compound 151, 4-{4-[(oxan-4-yl)methoxy]-7-(pyridin-3-yl)-5H,6H,7H-pyrrolo[2,3-d]pyrimidin-2-yl}morpholine] | 100 to 1000 nM | –
8 | c1ccc(N2CCc3c(OCc4ccncc4)nc(N4CCOCC4)nc32)cc1 [Compound 26, 4-(7-phenyl-4-(pyridin-4-ylmethoxy)-6,7-dihydro-5H-pyrrolo[2,3-d]pyrimidin-2-yl)morpholine] | 100 to 1000 nM | –
9 | Fc1cccc(N2CCc3c(OCc4cccnn4)nc(N4CCOCC4)nc32)c1 [Compound 8, 4-(7-(3-fluorophenyl)-4-(pyridazin-3-ylmethoxy)-6,7-dihydro-5H-pyrrolo[2,3-d]pyrimidin-2-yl)morpholine] | 100 to 1000 nM | –
10 | c1ccc(N2CCc3c(OCc4ccccn4)nc(N4CCOCC4)nc32)cc1 [Compound 24, 4-(7-phenyl-4-(pyridin-2-ylmethoxy)-6,7-dihydro-5H-pyrrolo[2,3-d]pyrimidin-2-yl)morpholine] | 10 to 100 nM | –
11 | c1cncc(-c2nc(N3CCOCC3)nc3c2CCN3c2ccc3c(c2)OCCO3)c1 [Compound 103, 4-(7-(2,3-dihydrobenzo[b][1,4]dioxin-6-yl)-4-(pyridin-3-yl)-6,7-dihydro-5H-pyrrolo[2,3-d]pyrimidin-2-yl)morpholine] | < 10 nM | –
12 | CC(C)(C)OC(=O)N1CCC(c2nc(N3CCOCC3)nc3c2CCN3c2cccnc2)CC1 [Compound 107, tert-butyl 4-(2-morpholino-7-(pyridin-3-yl)-6,7-dihydro-5H-pyrrolo[2,3-d]pyrimidin-4-yl)piperidine-1-carboxylate] | 100 to 1000 nM | –
13 | CC(C)(C)OC(=O)N1CCC(N2CCc3c(OCc4cccnc4)nc(N4CCOCC4)nc32)CC1 [Compound 5, tert-butyl 4-(2-morpholino-4-(pyridin-3-ylmethoxy)-5H-pyrrolo[2,3-d]pyrimidin-7(6H)-yl)piperidine-1-carboxylate] | > 10000 nM | –
14 | CN1CCC(COc2nc(N3CCOCC3)nc3c2CCN3c2cccnc2)C1 (stereo not drawn) [Compound 35, 4-(4-((1-methylpyrrolidin-3-yl)methoxy)-7-(pyridin-3-yl)-6,7-dihydro-6H-pyrrolo[2,3-d]pyrimidin-2-yl)morpholine] | 100 to 1000 nM | –
15 | O=c1c(CCOc2cccnc2)cc2ncncc2n1-c1ccccc1 | – | > 10000 nM
16 | CN1CCCC(COc2nc(N3CCOCC3)nc3c2CCN3CC(C)(C)O)C1 (stereo not drawn) [Compound 40, 2-methyl-1-(4-((1-methylpiperidin-3-yl)methoxy)-2-morpholino-6H-pyrrolo[2,3-d]pyrimidin-7(6H)-yl)propan-2-ol] | > 10000 nM | –
17 | c1ccc(-n2cc(N3CCc4c(Oc5cccnc5)nc(N5CCOCC5)nc43)nn2)cc1 [Compound 69, 4-(7-(1-phenyl-1H-1,2,3-triazol-4-yl)-4-(pyridin-3-yloxy)-6,7-dihydro-5H-pyrrolo[2,3-d]pyrimidin-2-yl)morpholine] | 10 to 100 nM | –

Row | Structure (SMILES) | IC50 [1] | IC50 [2]
18 | c1cncc(Oc2nc(N3CCOCC3)nc3c2CCN3c2cccnc2)c1 [Compound 55, 4-(7-(pyridin-3-yl)-4-(pyridin-3-yloxy)-6,7-dihydro-5H-pyrrolo[2,3-d]pyrimidin-2-yl)morpholine] | 100 to 1000 nM | –
19 | c1cc(-c2nc(N3CCOCC3)nc3c(-c4ccncn4)c[nH]c23)ccn1 [Compound 137, 4-(4-(pyridin-4-yl)-7-(pyrimidin-4-yl)-6H-pyrrolo[3,2-d]pyrimidin-2-yl)morpholine] | 10 to 100 nM | –
20 | c1cncc(N2CCc3c(C4CCCNC4)nc(N4CCOCC4)nc32)c1 (stereo not drawn) [Compound 114, 4-(4-(piperidin-3-yl)-7-(pyridin-3-yl)-6,7-dihydro-5H-pyrrolo[2,3-d]pyrimidin-2-yl)morpholine] | 1000 to 10000 nM | –
21 | c1cc(-c2nc(N3CCOCC3)nc3c(-c4nccc(C5CC5)n4)c[nH]c23)ccn1 [Compound 138, 4-(7-(4-cyclopropylpyrimidin-2-yl)-4-(pyridin-4-yl)-5H-pyrrolo[3,2-d]pyrimidin-2-yl)morpholine] | 100 to 1000 nM | –
22 | c1ccc(N2CCc3c(C4CNC4)nc(N4CCOCC4)nc32)cc1 [Compound 115, 4-(4-(azetidin-3-yl)-7-phenyl-6,7-dihydro-5H-pyrrolo[2,3-d]pyrimidin-2-yl)morpholine] | 100 to 1000 nM | –
23 | O=c1ccn(Cc2nc(N3CCOCC3)cc(-n3nccc3-c3ccccc3)n2)cc1 | – | > 10000 nM
24 | c1ccc(N2CCc3cnc(N4CCOCC4)nc32)cc1 [Compound 2, 4-(7-phenyl-6,7-dihydro-5H-pyrrolo[2,3-d]pyrimidin-2-yl)morpholine] | 100 to 1000 nM | –
25 | c1cncc(N2CCc3c(OCC4CCNC4)nc(N4CCOCC4)nc32)c1 (stereo not drawn) [Compound 34, 4-(7-(pyridin-3-yl)-4-(pyrrolidin-3-ylmethoxy)-6,7-dihydro-5H-pyrrolo[2,3-d]pyrimidin-2-yl)morpholine] | 100 to 1000 nM | –
26 | c1ccc(-c2cncc(Oc3nc(N4CCOCC4)nc4c3CCN4c3cccnc3)c2)cc1 [Compound 75, 4-(4-((5-phenylpyridin-3-yl)oxy)-7-(pyridin-3-yl)-6,7-dihydro-5H-pyrrolo[2,3-d]pyrimidin-2-yl)morpholine] | 10 to 100 nM | –
27 | c1ncc(N2CCc3c(OCC4CCOCC4)nc(N4CCOCC4)nc32)cn1 [Compound 9, 4-(7-(pyrimidin-5-yl)-4-((tetrahydro-2H-pyran-4-yl)methoxy)-6,7-dihydro-5H-pyrrolo[2,3-d]pyrimidin-2-yl)morpholine] | 100 to 1000 nM | –
28 | c1cncc(N2CCc3c(-c4ccncc4)nc(N4CCOCC4)nc32)c1 [Compound 105, 4-(7-(pyridin-3-yl)-4-(pyridin-4-yl)-6,7-dihydro-5H-pyrrolo[2,3-d]pyrimidin-2-yl)morpholine] | 10 to 100 nM | –
29 | CC(=O)N1CCC(c2nc(N3CCOCC3)nc3c2CCN3c2ccccc2)C1 (stereo not drawn) [Compound 119, 1-(3-(2-morpholino-7-phenyl-6,7-dihydro-5H-pyrrolo[2,3-d]pyrimidin-4-yl)pyrrolidin-1-yl)ethanone] | 10 to 100 nM | –
30 | c1ccc(N2CCc3c(-c4cncnc4)nc(N4CCOCC4)nc32)cc1 [Compound 100, 4-(7-phenyl-4-(pyrimidin-5-yl)-6,7-dihydro-5H-pyrrolo[2,3-d]pyrimidin-2-yl)morpholine] | 10 to 100 nM | –
31 | OCCn1cc(-c2cccc(-n3cccn3)c2)c2nc(N3CCOCC3)nc(-c3ccncc3)c21 [Compound 149, 2-(7-(3-(1H-pyrazol-1-yl)phenyl)-2-morpholino-4-(pyridin-4-yl)-6H-pyrrolo[3,2-d]pyrimidin-5-yl)ethan-1-ol] | 100 to 1000 nM | –
32 | Cc1cccc(-c2ccn(-c3nc(N4CCOCC4)nc4c3CCN4c3cccnc3)n2)c1 [Compound 83, 4-(7-(pyridin-3-yl)-4-(3-(m-tolyl)-1H-pyrazol-1-yl)-6,7-dihydro-6H-pyrrolo[2,3-d]pyrimidin-2-yl)morpholine] | 10 to 100 nM | –
33 | Fc1cccc(N2CCc3c(Oc4cccnc4)nc(N4CCOCC4)nc32)c1 [Compound 56, 4-(7-(3-fluorophenyl)-4-(pyridin-3-yloxy)-6,7-dihydro-5H-pyrrolo[2,3-d]pyrimidin-2-yl)morpholine] | 10 to 100 nM | –
